Laboratory results: ChEMBL document CHEMBL1134583, “Synthesis and biological activity of D- and L-chiro-inositol 2,3,4,5-tetrakisphosphate: design of a novel and potent inhibitor of Ins(3,4,5,6)P4 1-kinase/Ins(1,3,4)P3 5/6-kinase” (J Med Chem, 2001)
“And” between values parts separate entries of the source, which are not always exact repeats. Equal entries are not always repeated.

Assay: Inhibition against Inositol (3,4,5,6)P4 1-kinase from bovine aorta
Parameters: species or system Bos taurus

With `O=P(O)(O)OC1C(OP(=O)(O)O)[C@H](O)[C@H](O)C(OP(=O)(O)O)[C@@H]1O` (stereo not given in full) the IC50 was 0.17 µM and 0.2 µM.

Compared with `O=P(O)(O)OC1C(OP(=O)(O)O)[C@H](O)[C@H](OP(=O)(O)O)C(O)[C@@H]1O` (stereo not given in full), `O=P(O)(O)OC1[C@H](O)C(O)C(OP(=O)(O)O)[C@H](O)[C@@H]1OP(=O)(O)O` (stereo not given in full) is higher in IC50: 0.7 µM for the first, greater than 30 µM for the second. The first is the more potent here.

First: O=P(O)(O)OC1C(O)[C@H](O)[C@H](OP(=O)(O)O)C(OP(=O)(O)O)[C@@H]1O (stereo not given in full)
Second: O=P(O)(O)O[C@@H]1[C@H](O)[C@H](O)[C@@H](OP(=O)(O)O)[C@H](OP(=O)(O)O)[C@H]1O [INS(1,4,5)P3]
The IC50 of the first is 2.8-fold lower: 17 µM for the first, 48 µM for the second. The first is the more potent here.

Going from `O=P(O)(O)OC1C(OP(=O)(O)O)[C@H](OP(=O)(O)O)[C@H](O)C(O)[C@@H]1O` (stereo not given in full) to `O=P(O)(O)O[C@@H]1[C@@H](OP(=O)(O)O)[C@@H](OP(=O)(O)O)[C@H](O)[C@@H](O)[C@@H]1OP(=O)(O)O`, the IC50 rises from 4.2 µM to greater than 30 µM.

`O=P(O)(O)OC1C(OP(=O)(O)O)[C@@H](O)[C@H](OP(=O)(O)O)C(OP(=O)(O)O)[C@@H]1O` (stereo not given in full) and `O=P(O)(O)O[C@H]1[C@H](O)[C@@H](OP(=O)(O)O)[C@H](OP(=O)(O)O)[C@@H](OP(=O)(O)O)[C@H]1O` (stereo in doubt; 13) are within 1.5-fold of each other in IC50: 14.5 µM for the first, 16.7 µM for the second.

First: O=P(O)(O)O[C@@H]1[C@@H](OP(=O)(O)O)[C@@H](OP(=O)(O)O)[C@@H](O)[C@@H](O)[C@@H]1OP(=O)(O)O
Second: O=P(O)(O)O[C@H]1[C@H](OP(=O)(O)O)[C@@H](OP(=O)(O)O)[C@@H](O)[C@H](O)[C@H]1OP(=O)(O)O (stereo in doubt; 3)
The IC50 of the first is higher: greater than 30 µM for the first, 1.5 µM for the second. The second is the more potent here.

First: O=P(O)(O)O[C@H]1[C@H](OP(=O)(O)O)[C@@H](OP(=O)(O)O)[C@@H](O)[C@H](O)[C@H]1OP(=O)(O)O (stereo in doubt; 12)
Second: O=P(O)(O)O[C@H]1[C@H](O)[C@@H](OP(=O)(O)O)[C@H](OP(=O)(O)O)[C@@H](OP(=O)(O)O)[C@H]1O (stereo in doubt; 14)
The IC50 of the first is 5.6-fold lower: 1.6 µM for the first, 9 µM for the second.

For `O=P(O)(O)OC1C(OP(=O)(O)O)[C@H](OP(=O)(O)O)[C@H](OP(=O)(O)O)C(OP(=O)(O)O)[C@@H]1O` (stereo not given in full) [IONOSITOL (1,3,4,5,6) P5], the IC50 was 15 µM.

Assay: Inhibition of Inositol (3,4,5,6)P4 1-kinase from bovine aorta
Parameters: species or system Bos taurus

Work on `O=P(O)(O)OC1C(OP(=O)(O)O)[C@H](O)[C@H](O)C(OP(=O)(O)O)[C@@H]1O` (stereo not given in full) yielded an IC50 of 0.28 µM.
